Data reported in a melting point compilation (Tetko et al.; mined from patent text by program, amines drawn as free bases though some values may be those of a salt).

melting point	SMILES
122 °C	Cc1ccc(S(=O)(=O)NC(=O)C2C(=O)CC(C)CC2=O)cc1 (stereo unspecified)
134 to 136 °C	CCOC(=O)c1ccc(NC(=O)c2ccc3c(c2)OCCO3)cc1
142 to 144 °C	CS(=O)(=O)c1ccc(-c2cc(C(=O)CCCO[N+](=O)[O-])nn2-c2ccccc2)cc1
248 to 250 °C	CCn1c(=O)c(=O)[nH]c2cc(-n3cccc3)c([N+](=O)[O-])cc21
87 °C	ClC(Cl)=CCOc1cc(Cl)c(OCc2cccc(Cl)c2)c(Cl)c1
87 to 89 °C	COC(=O)C=Cc1nc(C(=O)CCCC(=O)OC)ccc1OC
245 to 246 °C	CCC(=O)Nc1c(C(=O)c2cc(Cl)ccc2[N+](=O)[O-])[nH]c2cc(Cl)ccc12
99 to 100 °C	Cc1cccc(C)c1OC1CN(C(c2ccccc2)c2ccccc2)C1
130 to 132 °C	COc1ccc(OC)c2c1CC1OC1C2 (stereo unspecified)
165 to 166 °C	CC(C)n1nc(-c2sc(NCCN3CCCCC3)nc2-c2ccccc2)ccc1=O
169 to 170 °C	NC(=O)c1cccc(-c2ccc(Cl)c3cc(Cc4cc(F)cc(Cl)c4)sc23)c1
132 °C	C=CC1CCC(C2CCC3c4ccc(OCC)c(F)c4OC3C2)CC1 (stereo unspecified)
205 to 206 °C	Cc1ccc(-c2cn3cc([N+](=O)[O-])ccc3n2)cc1
218 to 219 °C	Cc1c(C)c2c(c(C)c1NC(=O)CC(C)(C)C)C(c1ccc(-c3ccccc3)cc1)CO2 (stereo unspecified)
106 °C	Cn1nc(-c2ccccc2C=O)c2ccccc21
179 to 180 °C	O=C(O)c1cccc(-c2cccn3cc(Cc4cccc(C(F)(F)F)c4)nc23)c1
95 to 97 °C	Brc1ccc2scc(Br)c2c1
58 °C	CC(C)(C)C(=O)COc1ccc(Cl)cc1
159 to 160 °C	CC(=O)OC1CCC2(C)C(=CCC3C2CCC2(C)C(n4cnc5ccccc54)=CCC32)C1 (stereo unspecified)
120 to 122 °C	C=CC[C@@H]1C[C@@H](COc2ccc(-c3ccc(C#N)cc3)cc2)N(Cc2ccc(OC)cc2)C1=O
108 to 109 °C	O=C1Nc2ccccc2N(C(=O)CNCCc2ccccc2)C2CCC(Cc3ccccc3)C12 (stereo unspecified)
152 to 153 °C	CSCc1cccc(-c2nc(=O)c3ccccc3s2)n1
49 to 53 °C	CNc1nc(Cl)c(OC(F)F)c(OC)n1
152 to 154 °C	COC(=O)c1ccccc1-c1cc(F)cc(OCc2ccc3c(-c4ccoc4)cc(C#N)nc3c2)c1

melting point	SMILES
59 to 61 °C	CN(C)CCCNc1nc2cc(Cl)c(Cl)cc2nc1-c1ccccn1
223 to 224 °C	NC(CC(=O)O)c1ccc2c(c1)OCO2 (stereo unspecified)
127 to 129 °C	CN(c1ccccc1)[C@@H]1C=Cc2ccccc2[C@H]1O
133 to 135 °C	COC(=O)CS(=O)(=O)CCC=C1SC=CS1
170 to 172 °C	O=C(/C=C/c1cccnc1)NCCc1ccccc1O
66.5 to 67.5 °C	OCCCCOc1ccc2ccccc2c1
64 to 66 °C	N#CCCC=C(c1ccccc1)c1ccccc1
108 to 109 °C	COC(=O)c1cc(-c2ccc(OC)c(Cl)c2)nn(CC(C)C)c1=O
82 to 83 °C	O=C1C(Cl)=C(c2ccccc2)C(=O)N1c1ccccc1
237 to 238 °C	C=Cc1ncc2c(c1O)COC2C (stereo unspecified)
160 to 162 °C	O=C(O)c1ccc(NCC2CCCCCCC2)cc1
129 to 135 °C	O=C(CCCCl)c1ccc2cc(O)c(O)cc2c1
157 to 160 °C	O=C(CCCCc1cc(O)c(O)c([N+](=O)[O-])c1)NC12CC3CC(CC(C3)C1)C2
238 °C	COc1ccc(-n2ncc(C(=O)Nc3ccc(N4CCC(N5CCOCC5)CC4)c(C#N)c3)c2C)cc1
> 270 °C	CCOc1cc(NC(=O)NS(=O)(=O)c2ccc(C)cc2)cc(OCC)n1
226 °C	COc1ccc(C2CC(c3ccccc3)=NN2c2ccc(C(=O)O)cc2)cc1 (stereo unspecified)
187 °C	Oc1nc2ccc3sccc3c2nc1O
236 to 243 °C	COc1cc(/C=C/c2cc(/C=C/c3ccc4cc[nH]c4c3)n[nH]2)ccc1OCc1ccccn1
181 to 182 °C	O=C(O)C1(C(F)F)c2ccccc2Oc2ccccc21
130 to 131 °C	COC(=O)c1cc(C(C)=O)c(OC(C)=O)cc1NC(=O)C(F)(F)F
81 to 89 °C	COc1cc(C2CCN(C(=O)C(C)(C)N)CC2)ccc1Nc1ncc2ccc(-c3ccccc3OC)n2n1
70 to 74 °C	O=C(Nc1nccs1)C(CC1CCCC1)c1ccc(NS(=O)(=O)C(F)(F)F)cc1 (stereo unspecified)
96 to 97 °C	CCCCc1nc(Cl)c(C=O)n1Cc1ccc(-c2ccccc2C#N)cc1
229 °C	CC1(c2cc(/C=C/c3ccc(C(=O)O)cc3)ccc2O)CCCCC1

melting point	SMILES
114 to 115 °C	CS(=O)(=O)c1ccc(C2=C(c3ccc(F)c(F)c3)CCC2)cc1
162 to 164 °C	CC1=CC(=O)C(C(=O)C=Cc2cccs2)C(=O)O1 (stereo unspecified)
126 to 128 °C	Cc1c(C)c(N2CCN(c3ccnn3C)CC2)c(C)c2c1OC(C)(C)C2
37 to 39 °C	CCCCC1OC(=O)COC1=O (stereo unspecified)
95 to 96 °C	CN(C)Cc1c(O)ccc2cc(Br)ccc12
> 250 °C	Nc1nc2ccc(S(=O)(=O)n3c(CCC(=O)O)cc4cc(C(F)(F)F)ccc43)cc2s1
> 250 °C	CCOCc1nc2c(N)nc3ccccc3c2n1CCC(N)=O
132 to 135 °C	Cn1c(C(F)(F)F)cc(=O)n(-c2cc(OC(=O)NCC3CCCCC3)c(Cl)cc2F)c1=O
125 to 128 °C	COc1cc2ncnc(N3CCC(C4(C)CO4)CC3)c2cc1OC (stereo unspecified)
157 to 158 °C	Clc1ccc(C2Cc3cnc(Nc4ccc(CCN5CCCCC5)cc4)nc3-c3ccccc32)cc1Cl (stereo unspecified)
84 °C	O=[N+]([O-])c1ccc(Cl)cc1NC1CCN(Cc2ccccc2)CC1
189 °C	N#CC1(c2ccc(F)cc2)C=CC(N2CCN(c3cccnn3)CC2)CC1 (stereo unspecified)
90 to 92 °C	COC(=O)COCc1cc2cc(C(F)(F)F)ccc2n1S(=O)(=O)c1ccccc1
169 to 170 °C	CS(=O)(=O)Nc1cc2c(cc1Oc1ccccc1)C(=O)C(Br)(Br)CO2
76 °C	CCOC(=O)CCNCC(O)COc1ccc(OC)cc1C#N (stereo unspecified)
224 to 230 °C	CC1Cc2cc(O)c(Cl)c(Cl)c2C1=O (stereo unspecified)
44 to 45 °C	CCOC(=O)c1oc(C(C)(C)C)cc1N
76 to 78 °C	CC(C)(C)OC(=O)N1C(=O)CCC1=O
179 to 180 °C	CC(=O)CCc1cccc(C)c1NC(=O)CC1c2ccccc2Oc2ccccc21
127 to 128 °C	O=C(N1CCN(c2ncccn2)CC1)N1CC(Oc2cccc(C(F)(F)F)c2)C1
96 to 97 °C	CC(=O)NCC1CC1c1cccc2nscc12 (stereo unspecified)
74.5 to 75 °C	CCOC(=O)C=Cc1ccc(OCc2ccccc2)c(OC)c1
94 to 97 °C	O=c1c2c(N3CCNCC3)cc(Cl)cc2n(Cc2ccccc2)c(=O)n1Cc1ccccc1Br
63 to 65 °C	COc1cc(C(=O)Cl)ccc1OCc1ccccc1

melting point	SMILES
157 to 158 °C	O=C(Nc1ccc(C(=O)N2CCCCc3cc(Cl)ccc32)cn1)c1ccccc1OCCCCO
196 °C	CC(C)(C)C1=C(c2cc3cc(O)ccc3s2)OCC1(C)C
151 °C	CC(C)(C)OC(=O)NCC(N)c1c[nH]c2ccc(Br)cc12 (stereo unspecified)
103 to 105 °C	O=C(NCCCCn1cncn1)c1sc2ccccc2c1Cl
102 to 104 °C	O=S(=O)(c1ccccc1)n1ncc2c(OCCCl)cccc21
62 to 63 °C	COc1cc2c(cc1O)C(O)CN(Cc1cc(OC)c(OC)c(OC)c1)C2 (stereo unspecified)
158 to 160 °C	Cc1oc2c(-c3ccc(F)cc3)c(-c3ccc(S(C)(=O)=O)cc3)nn2c1C
140 to 150 °C	CC(=O)N(N1C(=O)C(NC(=O)Nc2cccc(C)c2)CC(c2ccccc2)CC1c1ccccc1)C(C)(C)C (single isomer, unassigned; (-))
165 to 166 °C	COc1cc(Nc2nccc(-c3ccc(NCCCN4CCOCC4)nc3)n2)cc(OC)c1OC
192 °C	NC(=S)NCc1cn(-c2ccc(N3CCOCC3)c(F)c2)nn1
142 to 145 °C	CS(=O)(=O)c1ccc(-c2cnn(CC(F)(F)F)c(=O)c2Sc2ccc(F)c(Cl)c2)cc1
60 °C	Nc1ccc(N2CCN(CC(O)(Cn3cncn3)c3ccc(Cl)cc3Cl)CC2)cc1 (stereo unspecified)
> 200 °C	Cc1ccc(S(=O)(=O)N2C(=O)c3cc4c(cc3[C@H]3[C@@H](C=O)[C@H](O[Si](C)(C)C(C)(C)C)[C@H]5OC(C)(C)O[C@H]5[C@@H]32)OCO4)cc1
213 to 215 °C	CCn1cc(C(=O)O)c(=O)c2cc(F)c(C(=O)CBr)c(F)c21
168 to 170 °C	N#CCC(O)(c1ccc(-c2ccccc2)cc1)c1ccc(-c2ccccc2)cc1
103 to 105 °C	Cc1ccc(-c2cc(NCCN(C)C)c3ccccc3n2)s1
106 to 107 °C	Cn1ncc(Cl)c(N)c1=O
136 °C	CCOC(=O)C1=C(C)NC(N=CN(C)C)=C(C(=O)OCC)C1c1cccc(OC)c1 (stereo unspecified)
114 to 116 °C	CC(C)c1cccc(C(C)C)c1Oc1ccc(C#N)c(C#N)c1
193 to 194 °C	CC(C)(C)OC(=O)NC1CCCCc2cc(OCC3CCCCC3)c(C(N)=O)cc21 (stereo unspecified)
206 °C	O=C1OC2(CCN(C(=O)Nc3cnc(-c4ccccc4)cn3)CC2)c2ccccc21
84 °C	O=[N+]([O-])c1cc(Cl)c(Oc2cc(Cl)c(Cl)cc2Cl)cc1Oc1ccccc1
167 to 169 °C	CC(=O)c1c(O)ccc2c(C)cc(=O)oc12
191 to 200 °C	Cc1nc(N2N=C(c3ccc([N+](=O)[O-])cc3)c3cc4c(cc3CC2C)OCO4)no1 (stereo unspecified)

SMILES	melting point
CC(O)c1nnc2n1-c1sc(Cl)cc1C(c1ccccc1Cl)=NC2 (stereo unspecified)	118 to 120 °C
O=C1NCN(c2ccccc2)C12CCN(CC1CCc3ccc(F)cc3C1O)CC2 (stereo unspecified)	210 to 212 °C
CC(=O)OC(c1cn2c(nc3ccccc32)s1)C1(Br)C(=O)N2C(C(=O)OCc3ccc([N+](=O)[O-])cc3)=CS[C@@H]21 (stereo partly specified)	78 °C
N#Cc1c(F)c(F)c(CO)c(F)c1F	50 °C
ClCc1ccc(CCl)o1	27 to 28 °C
